One data set deals with pan-integrins. Briefly: FN-coating cell adhesion assay (pan-integrins activation). It is filed as cell-based, mouse. The following applies: 100 nM, n=5. As for the experimental part:
10 μg/mL Fibronectin (Merck, #10838039001) was dissolved in serum-free DMEM medium and dropped into a 96-well plate, 50 μL per well. The plate was incubated at 4 °C overnight. After blocking with 3% bovine serum albumin at room temperature for 30 min, 4×10^4 cells were inoculated into each well. After incubation for 30 min, the cells were washed, fixed, and stained with crystal violet (5 mg/mL) for 30 min. Then after the crystal violet was dissolved, it was detected using an ELISA reader at 595 nm.

A further data set has as its system SDC4/integrin-β1. Briefly: Duolink-PLA, SDC4/integrin-β1 extracellular interaction in fibroblast. It is filed as cell-based, mouse. As to conditions: SDC4_87-131 100 nM; with Anti-SDC4(93-121), n=5. As for the experimental part: (§1) Decellularized lung ECM (dECM) was prepared as described in previous study. 2 × 10^5 cells/mL NIH3T3 cells (mouse […], purchased from the Stem Cell Bank of the Chinese Academy of Sciences, Shanghai, China) were seeded on the dECM slices attached to the bottom of the culture dish and cultured in DMEM medium containing 0.5% fetal bovine serum (Gibco, Waltham, MA, USA) at 37°C and 5% CO2.
(§2) Cells or tissue slices were attached to slides, fixed and permeabilized and blocked with Duolink^TM (Merck, MO, USA) blocking buffer. Antibodies against the extracellular domain of SDC4 (5G9, mouse IgG, SCBT #sc-12766), integrin-αv (rabbit IgG, CST #4711) and integrin-β1 (rabbit IgG, CST #34971) were diluted and added to the samples and incubated overnight at 4°C. After washing, PLUS and MINUS (proximity ligation assay, PLA) probes were added to the samples and incubated at 37°C for 1 h. After washing, the samples were sequentially incubated with PLUS and MINUS (PLA) probes, ligation buffer and amplification buffer containing polymerase. Finally, the samples were mounted with in situ mounting medium containing DAPI. Images were acquired using a Leica SP5 confocal microscope (Leica Biosystems, Germany) and quantitative analysis was performed using ImageJ software.

Data set [1] relates to BLM-induced PF, C57BL/6J mice. Nature of the data set: BLM-induced PF in mice: RT-PCR of lung tissue. The following applies: BLM lung tissue. It is filed as in vivo, mouse. As for the experimental part: (§3) After the mice were anesthetized (1% sodium pentobarbital 50 mg/kg was injected intraperitoneally), 150 μL of bleomycin (BLM, 5 mg/mL, BIO-000001) was inhaled into the lungs of the mice by tracheal inhalation instillation. One day later, the mice were randomly divided into model and drug treatment groups, and the mice in the control group were only subjected to saline inhalation.
(§4) Based on the dosage of SDC2 fragment peptide and our experimental results (Supplementary Figure S10A and B), the dosage schedule of SDC4_87-131 was set as follows: starting on the third day after BLM inhalation, 1 mg/kg, administered via trachea infusion once every three days. And Anti-SDC4(93-121) 8 mg/kg was administered on the third and tenth days (reference dosage).
(§5) Total RNA was extracted from cells or lung tissue (10 mg) using Trizol reagent, and mRNA was reverse transcribed into cDNA using HiScript® II QRT SuperMix for qPCR (Vazyme, #R223-01). Real-time fluorescence quantitative PCR (RT-PCR) was performed using Hieff® qPCR SYB Green Master Mix (YEASEN, #11201ES08) to obtain the Ct value. The 2^−ΔΔCt method was used to obtain the relative expression level of mRNA in each group. Primers (Table 1) were purchased from Sangon Biotech.

The next data set has as its system SDC4/integrin-αv. Briefly: Duolink-PLA, SDC4/integrin-αv interaction in BLM lung tissue. It is filed as in vivo, mouse. The following applies: SDC4_87-131 1 mg/kg ITD q3d; C8 10 mg/kg IP qd; Anti-SDC4(93-121) 8 mg/kg ITD day 3 and 10; n=5. As for the experimental part:
as §3, §2

For another data set, the target named is integrin-αvβ1 (Homo sapiens, UniProt P05556+P06756). Nature of the data set: SPR binding of peptides to integrin-αvβ1 (Biacore 8K+). The following applies: 25°C, Figure 7E. Here is the method: The Biacore 8K+ system (GE Healthcare) was used at 25°C. The ligand integrin-αvβ1 (1 mg/mL) was routinely coupled to the sensor chip (Series S Sensor Chip CM5, Cytiva, #100530). The peptide samples SDC4_87-131 and CS-1, -2, -3, -4, -8, -9, -10 were dissolved in PBS, and then, the samples with different concentration gradients (0.78, 1.56, 3.125, 6.25, 12.5, 25, 50, 100 μM) were injected, respectively, under the driving of buffer PBST (PBS + 0.05% Tween-20). The signal intensity was quantified in relative units (RU), and binding affinity was determined using the dissociation constant (Kd). After the experiment, 10 mM glycine-HCl buffer solution (pH = 2) was selected to regenerate the chip surface.
(SPR reads the build-up and loss of mass on a sensor chip optically.)

Data set [2] concerns BLM-induced PF, C57BL/6J mice. Nature of the data set: BLM-induced PF in mice: lung index and blood cell count. It is filed as in vivo, mouse. As to conditions: n=6. As for the experimental part:
as §3, §4
At the termination of the experiment, the mice were euthanized and their lung tissues were taken after the eyeballs were removed and blood was collected. Within 2 hours after blood collection, the blood samples were tested on the URIT-2900VetPLUS automatic animal blood cell analyzer.

For a further data set, the system named is fibroblast. Nature of the data set: CCK-8 fibroblast viability/toxicity. It is filed as cell-based, mouse. As to conditions: CCK-8, 48 h, 10–1000 nM. As for the experimental part: as §1
(A) Schematic diagram of SDC487-131; (B) Effect of SDC487-131 and GRGDNP on fibroblast proliferation at 48 h was determined by CCK-8 method (n=3); (C) Effect of different concentration of SDC487-131 on fibroblast activation induced by d-PF for 48 h (n=5). Note: **p < 0.01 vs. PBS in d-Nor group; #p < 0.05 vs. PBS in d-PF group. d-Nor: dECM-Nor; d-PF: dECM-PF.
Figure S14. The viability of fibroblast after treated with peptides for 48 h was detected by CCK-8 assay.

The test system of a further data set is NIH3T3 cells. Briefly: RT-PCR of fibroblast activation markers, TGF-β1 and inflammatory factors in dECM-stimulated fibroblast. It is filed as cell-based, mouse. Here is the method: as §1, §5

integrin-αvβ1, sequence (P06756 31-992 limits assumed): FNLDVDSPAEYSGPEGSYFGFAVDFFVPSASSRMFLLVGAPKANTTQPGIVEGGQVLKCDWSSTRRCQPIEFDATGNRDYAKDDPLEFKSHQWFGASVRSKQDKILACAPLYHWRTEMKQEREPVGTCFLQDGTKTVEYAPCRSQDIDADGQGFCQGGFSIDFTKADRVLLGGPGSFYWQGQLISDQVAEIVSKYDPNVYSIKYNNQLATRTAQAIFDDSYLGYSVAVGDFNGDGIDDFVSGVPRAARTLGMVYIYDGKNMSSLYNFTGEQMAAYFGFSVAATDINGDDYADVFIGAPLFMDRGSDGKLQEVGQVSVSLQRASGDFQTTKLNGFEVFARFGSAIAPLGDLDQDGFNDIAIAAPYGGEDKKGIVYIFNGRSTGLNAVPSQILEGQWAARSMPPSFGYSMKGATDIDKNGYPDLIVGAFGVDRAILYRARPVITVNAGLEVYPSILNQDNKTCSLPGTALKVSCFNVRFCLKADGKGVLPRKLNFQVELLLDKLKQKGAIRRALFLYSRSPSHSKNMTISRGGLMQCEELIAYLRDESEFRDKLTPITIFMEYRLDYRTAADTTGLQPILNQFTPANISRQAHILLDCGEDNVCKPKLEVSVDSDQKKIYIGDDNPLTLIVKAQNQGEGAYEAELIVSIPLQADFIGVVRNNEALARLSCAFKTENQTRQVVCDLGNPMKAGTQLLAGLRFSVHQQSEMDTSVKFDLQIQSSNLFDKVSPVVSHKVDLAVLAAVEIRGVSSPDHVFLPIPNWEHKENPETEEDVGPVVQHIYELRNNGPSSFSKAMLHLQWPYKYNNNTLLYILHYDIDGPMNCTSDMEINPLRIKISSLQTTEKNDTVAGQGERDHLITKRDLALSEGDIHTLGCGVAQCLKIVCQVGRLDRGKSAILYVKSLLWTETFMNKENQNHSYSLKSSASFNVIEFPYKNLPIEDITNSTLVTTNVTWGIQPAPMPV
integrin-αvβ1, sequence (P05556 21-728 partner limits assumed): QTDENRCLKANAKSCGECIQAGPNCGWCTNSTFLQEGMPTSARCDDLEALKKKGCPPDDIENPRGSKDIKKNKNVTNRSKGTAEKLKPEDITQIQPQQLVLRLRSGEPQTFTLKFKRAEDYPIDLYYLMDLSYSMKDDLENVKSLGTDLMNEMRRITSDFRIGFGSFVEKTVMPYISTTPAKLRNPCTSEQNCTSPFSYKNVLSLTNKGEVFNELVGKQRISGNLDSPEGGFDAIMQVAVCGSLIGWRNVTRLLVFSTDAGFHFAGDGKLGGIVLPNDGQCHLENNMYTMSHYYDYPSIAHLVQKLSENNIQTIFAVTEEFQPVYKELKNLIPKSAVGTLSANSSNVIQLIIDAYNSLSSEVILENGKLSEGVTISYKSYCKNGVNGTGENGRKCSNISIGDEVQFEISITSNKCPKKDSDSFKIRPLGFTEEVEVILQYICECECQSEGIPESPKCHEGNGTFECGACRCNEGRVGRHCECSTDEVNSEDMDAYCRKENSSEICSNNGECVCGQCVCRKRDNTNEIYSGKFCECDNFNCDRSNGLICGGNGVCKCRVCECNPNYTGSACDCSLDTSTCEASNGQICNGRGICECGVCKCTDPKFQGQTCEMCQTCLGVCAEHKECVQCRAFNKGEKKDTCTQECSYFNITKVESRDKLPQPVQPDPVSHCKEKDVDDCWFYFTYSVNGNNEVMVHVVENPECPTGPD

Turning to “Ac-NHIPERAGSGSQVPTEPKKLEENEVIPKRISPVEESEDVSNKVSM-NH2 [SDC4_87-131]”, the pan-integrins activation entry in the data set on pan-integrins is reported as “could inhibit pan-integrins activation”. In addition, the “integrin-β1/SDC4 interaction induced by dECM-PF” value in the data set with SDC4/integrin-β1 is “significantly reduce”. Further, the “mRNA levels of α-SMA, FN, Col I, TGF-β1, IL-1β, IL-6 and TNF-α” value in data set [1] (1 mg/kg ITD q3d, n=4–6) is listed as “significantly reduced”. Further, in data set [1] (n=4–5), the “IL-6 downregulation vs C8” value is given as “stronger effect in downregulating IL-6 than C8”. Also, the “interaction of integrin-αv and SDC4 in BLM lung tissue” value in the data set on SDC4/integrin-αv was “could reduce the interaction of integrin-αv and SDC4”. In addition, the “affinity (in words)” value at integrin-αvβ1 is on record as “nM level”. In data set [2] (Figure 5F), the “downregulating effect (blood leukocyte count) vs C8” value is “notably stronger than that of C8”. Also, in data set [2] (SDC4_87-131, C8, Anti-SDC4(93-121) groups), the “lung index and blood leukocyte count” value is “could reduce the lung index and blood leukocyte count”. Moreover, the toxicity to fibroblast result in the data set on fibroblast was “no significant toxicity to fibroblast”. Also, the dECM-PF-induced fibroblast activation entry with NIH3T3 cells (100 nM, 48 h) was “significantly inhibit dECM-PF-induced fibroblast activation”. Further, the “dECM-PF-induced fibroblast activation and TGF-β1 synthesis” value in the data set with NIH3T3 cells (SDC4_87-131 100 nM vs Anti-SDC4(93-121) 100 ng/mL) is “inhibited dECM-PF-induced fibroblast activation and TGF-β1 synthesis”.

(Values after publication PMC12313019, “Fibrotic lung ECM upregulates SDC4/integrin-αvβ1 interaction and the interfering peptide SDC4_87-131 and its derivative peptides alleviate pulmonary fibrosis” (Regenerative Biomaterials, 2025).)
